Measurements as given in the supplement of paper PMC10307832.

Assays:
Assay in all cases: relative viability (nuclei count vs DMSO), 5 days (fraction); higher = more cells survive
Selisistat + Pictilisib = compound: C1CC(C2=C(C1)C3=C(N2)C=CC(=C3)Cl)C(=O)N [Selisistat] + CS(=O)(=O)N1CCN(Cc2cc3nc(-c4cccc5[nH]ncc45)nc(N4CCOCC4)c3s2)CC1 [Pictilisib] (partner 1 µM)
Method in brief: (§1)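 Nuclei were stained with Hoechst during a one-step fixation (final 0.05% Triton X-100, 1% formaldehyde, 1 ug/ml Hoechst) carried out 5 days after dosing, then counted on 4× images. The cells, lung cancer lines in 1536-well plates, had been dosed by pin tool the day after seeding with one drug alone or a fixed anchor-drug dose plus five library-drug doses (not always all listed) in √10 steps. Relative viability is the nuclei count in treated wells divided by that in vehicle wells, and each value is the median of duplicate plates.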

Serdemetan + Tozasertib = compound: c1ccc2c(CCNc3ccc(Nc4ccncc4)cc3)c[nH]c2c1 [Serdemetan] + Cc1cc(Nc2cc(N3CCN(C)CC3)nc(Sc3ccc(NC(=O)C4CC4)cc3)n2)n[nH]1 [Tozasertib] (partner 0.1 µM)
Method in brief: as §1

Serdemetan + Olaparib = compound: c1ccc2c(CCNc3ccc(Nc4ccncc4)cc3)c[nH]c2c1 [Serdemetan] + O=C(c1cc(Cc2n[nH]c(=O)c3ccccc23)ccc1F)N1CCN(C(=O)C2CC2)CC1 [Olaparib] (partner 8 µM)
Method in brief: as §1

Selisistat + Foretinib = compound: C1CC(C2=C(C1)C3=C(N2)C=CC(=C3)Cl)C(=O)N [Selisistat] + COc1cc2c(Oc3ccc(NC(=O)C4(C(=O)Nc5ccc(F)cc5)CC4)cc3F)ccnc2cc1OCCCN1CCOCC1 [Foretinib] (partner 0.25 µM)
Method in brief: as §1

Cell Line	relative viability (Selisistat + Pictilisib; first compound 0.4 µM)	relative viability (Selisistat + Pictilisib; first compound 1.265 µM)	relative viability (Selisistat + Pictilisib; first compound 4 µM)	relative viability (Selisistat + Pictilisib; first compound 12.65 µM)	relative viability (Selisistat + Pictilisib; first compound 40 µM)	relative viability (Serdemetan + Tozasertib; first compound 0.04 µM)	relative viability (Serdemetan + Tozasertib; first compound 0.1265 µM)	relative viability (Serdemetan + Tozasertib; first compound 0.4 µM)	relative viability (Serdemetan + Tozasertib; first compound 1.265 µM)	relative viability (Serdemetan + Tozasertib; first compound 4 µM)	relative viability (Serdemetan + Olaparib; first compound 0.04 µM)	relative viability (Serdemetan + Olaparib; first compound 0.1265 µM)	relative viability (Serdemetan + Olaparib; first compound 0.4 µM)	relative viability (Serdemetan + Olaparib; first compound 1.265 µM)	relative viability (Serdemetan + Olaparib; first compound 4 µM)	relative viability (Selisistat + Foretinib; first compound 0.4 µM)	relative viability (Selisistat + Foretinib; first compound 1.265 µM)	relative viability (Selisistat + Foretinib; first compound 4 µM)	relative viability (Selisistat + Foretinib; first compound 12.65 µM)	relative viability (Selisistat + Foretinib; first compound 40 µM)
LK-2	0.645	0.502	0.575	0.499	0.456	0.171	0.176	0.194	0.207	0.168	0.715	0.645	0.782	0.444	0.57	0.955	1.04	1.45	0.955	1.01
NCI-H2126	0.525	0.496	0.398	0.526	0.584	0.867	0.874	0.786	0.832	0.79	0.885	0.914	0.855	0.724	0.751	1.27	1.16	1.17	1.32	1.16
NCI-H3122	0.558	0.606	0.262	0.608	0.704	0.369	0.431	0.382	0.406	0.337	0.597	0.614	0.557	0.407	0.367	0.996	0.942	0.881	0.97	1.03
NCI-H1975	0.322	0.315	0.236	0.301	0.265	0.825	0.701	0.722	–	0.771	0.843	0.754	0.742	0.748	0.75	0.983	0.84	0.896	0.815	0.706
NCI-H1944	0.335	0.363	–	0.346	0.395	0.249	0.278	0.234	0.158	0.165	0.385	0.393	0.286	0.228	0.288	0.948	0.854	–	0.857	0.808
LU99A	0.336	0.35	0.404	0.373	0.299	0.321	0.297	0.265	0.183	0.185	0.245	0.185	0.17	0.124	0.136	0.825	0.744	0.774	0.773	0.801
SW 1573	0.557	0.594	0.426	0.419	0.513	0.168	0.15	0.218	0.248	0.18	0.571	0.464	0.445	0.21	0.296	0.954	0.806	0.821	0.931	0.929
NCI-H2347	0.374	0.714	0.294	0.541	0.56	0.623	0.602	0.572	0.588	0.399	0.568	0.535	0.59	0.424	0.439	0.918	1.04	–	1.06	0.989
